Experimental data: patent US9012036B2, “Organometallic complex, composition and light emitting element including the organometallic complex” (Semiconductor Energy Laboratory Co., Ltd., priority 2007, dated 2015)

Tests used:
[1] = solubility test in various solvents; assay type: physicochemical; details: for solubility in dimethylformamide (DMF) / solubility x, Solvents not having aromatic ring DMF: solvent DMF; for solubility in chloroform / solubility x, Solvents not having aromatic ring chloroform: solvent chloroform; for solubility in dioxane / solubility x, Ethers dioxane: solvent dioxane; for solubility in toluene / solubility x, sovents having aromatic ring toluene: solvent toluene
Description: In this Example, the solubility of an organometallic complex including a pyrazine skeleton described in Embodiment Mode 1 was measured. The measurement was performed by examining the solubility in various solvents: 2-ethoxyethanol, isopropanol, and ethanol, which are alcohols; dioxane, which is ether; chloroform and dimethylformamide (DMF), which are an organic solvent not including an aromatic ring; and toluene, which is an aromatic hydrocarbon-based solvent.
Among the complexes disclosed in Embodiment Mode 1, [Ir(tppr)2(dpm)] represented by the structural formula (147), which was synthesized in Example 1, is selected as a measurement object. The solubility was investigated. […]

[2] = decomposition temperature by differential thermal balance (TG-DTA); assay type: physicochemical; details: temperature increase rate 10° C./min, normal atmospheric pressure
Description: The decomposition temperature of the obtained organometallic complex of the present invention, [Ir(tppr)2(dpm)], was measured with a high vacuum differential type differential thermal balance (TG-DTA2410SA, manufactured by Bruker AXS K.K.). The temperature increase rate was 10° C./min, and the temperature was increased under normal atmospheric pressure.

bis(2,3,5-triphenylpyrazinato)(dipivaloylmethanato)iridium(III) [Ir(tppr)2(dpm)]
⊚ (x ≧ 1.2): solubility x, Alcohols 2-ethoxyethanol ([1]; solvent 2-ethoxyethanol) | solubility x, Solvents not having aromatic ring DMF [1] | solubility x, Solvents not having aromatic ring chloroform [1] | solubility x, Ethers dioxane [1]
Δ (0.9 > x ≧ 0.6): solubility x, Alcohols ethanol ([1]; solvent ethanol) | solubility x, Alcohols isopropanol ([1]; solvent isopropanol) | solubility x, sovents having aromatic ring toluene [1]
327 °C: decomposition temperature (reduction in weight by 5%) [2]
≥ 600 µg/mL: solubility in ethanol ([1]; solvent ethanol) | solubility in isopropanol ([1]; solvent isopropanol) | solubility in toluene [1]
≥ 1200 µg/mL: solubility in dimethylformamide (DMF) [1] | solubility in chloroform [1] | solubility in dioxane [1]

bis(2,3,5-triphenylpyrazinato)(pivaloyltrifluoroacetonato)iridium(III) [Ir(tppr)2(pFac)]
≥ 1200 µg/mL: solubility in dimethylformamide (DMF) [1] | solubility in chloroform [1] | solubility in dioxane [1] | solubility in toluene [1]
⊚ (x ≧ 1.2): solubility x, Solvents not having aromatic ring DMF [1] | solubility x, Solvents not having aromatic ring chloroform [1] | solubility x, Ethers dioxane [1] | solubility x, sovents having aromatic ring toluene [1]
